Where two headings read alike, the source gives them in different places. *1 amine or outer side, *2 acyl side, *3 side chain or, on linkers, in order; H or OH if unused. Where a SMILES comes first, the peptide text is derived from it. Bridges are numbered along the chain shown (N, C = ends). [ ]: non-standard residue; d: D form. NHCH2CMe2S = CC(C)(CN[*:1])S[*:2]
Legend:
[1] = Serum stability; format: in vitro ADME; conditions: rat
Experimental: Purified DP-7-11 (1 mg/mL) was dissolved in 0.1 M ammonium bicarbonate (NH4HCO3) buffer. To prepare a stock trypsin solution, 1 mg trypsin was dissolved in 50 mL of 0.1 M NH4HCO3 buffer. Equal volumes of the stock trypsin solution (62.5 μL) and DP-7-11 solution (62.5 μL) were incubated in 375 μL of 0.1M NH4HCO3 buffer in a 37° C. water bath. Aliquots of 100 μL were collected from this mixture at set time intervals of 0 min, up to 24 hours. Ice-cold acetonitrile containing 0.5% TFA was used to quench the reaction between DP-7-11 and trypsin at predetermined intervals, and just prior to HPLC or LC-MS analysis. The quenched samples were vortexed for 10 minutes followed by centrifugation at 12,000 rpm for a further 15 minutes. Supernatant was sampled and analysed using analytical RP-HPLC or LC-MS. Samples without trypsin acted as negative controls and were sampled at two intervals of 0 hour and 6 hours.
Serum stability of DP-7-11 was also performed. In this regard, rat serum replaced trypsin and NH4HCO3 buffer. Water was used as negative control in place of serum, with the stability study performed in an identical fashion to the trypsin study. […] DP-11-00 and DP-11-06 were tested in a similar manner.
As used in this serum and trypsin stability discussion, the term ‘degraded completely’ relates to the relevant compound being completely absent when tested. In other words, the compound being tested is not observed when tested.
This appears to indicate the improved metabolic stability of the present invention.
The serum and trypsin stability of DP-7-11 and DP-7-12 were tested (in some instances again) using LC-MS. The LC-MS utilized in this study was more sensitive than the LC-MS utilized in the above tests.

[2] = molecular target: DOP (Homo sapiens, UniProt P41143); assay: In vitro cAMP activity at DOP (Table 10); format: cell-based; conditions: cAMP inhibition, four-parameter regression
Experimental: The CP series compounds were assayed as follows: The assay was performed using a 96 well ½ area plate. The different cAMP standard solutions (3 μL/well) were plated in duplicate. The different concentrations of drug (3 μL/well), and control solutions (3 μL/well) were plated in triplicate. Following this, the acceptor bead mixture (3 μL/well) was added to the respective sets—either cAMP standard curve or the treatment. This was covered and incubated on the orbital shaker for 60 minutes at 37° C. Then, the donor bead mixture (10 μL/well) was added to each well. This was incubated at room temperature overnight on the orbital shaker.
For DP-11-06 the assay was carried out in the same way as for the CP compounds except it was incubated for 30 mins at 37° C.
For the CP series compounds and DP-11-06, the Ensight® Multimode Plate Reader was used to quantify the fluorescence units of each plate. Before reading, each plate was centrifuged at 280 g for 30 seconds. Using GraphPad Prism7® Software, cAMP concentrations were determined by fit spline/LOWESS analysis. The cAMP standard curve was used for interpolation at this point. The cAMP concentrations were then normalized to the highest cAMP concentration recorded and analyzed by one-way ANOVA for multiple comparisons. The IC50 for each compound was then calculated using GraphPad Prism7® with non-linear regression analysis using four parameter curve fitting.
In this regard, a different regression analysis method was adopted on the above cAMP experiments. Particularly, a new non-linear regression (four-parameter) was adopted to better account for hill slope, thereby improving the regression fit.

[3] = Stability in cAMP buffer; format: physicochemical; conditions: over 60 minutes
Excerpt: Select compounds were also screened for stability in cAMP buffer, to assess whether they degrade spontaneously in the cell assay environment, in the absence of cellular metabolic processes.

[4] = Plasma stability assay (Table 10); format: in vitro ADME; conditions: both sexes, Wistar, rat plasma (EDTA), 37° C., 100 uM peptide, One Phase Decay, read-out: Stability (t1/2, mins) Plasma
Excerpt: FIG. 20 is a series of graphs showing the stability of selected peptides in a trypsin (left-hand graphs) and plasma (right-hand graphs) stability assay (data normalised to concentration of each peptide at t=0, determined by LCMS, within each substrate; data analysed using One Phase Decay nonlinear regression in Prism software and each experiment performed in triplicate; mean+/−SEM);
The results shown in Table 10 utilized rat plasma. • Note that DP-7-11 and CP5 represent the same compound, and DP-7-12 and CP6 are the same compound. In this regard, a different regression analysis method was adopted on the above cAMP experiments. Particularly, a new non-linear regression (four-parameter) was adopted to better account for hill slope, thereby improving the regression fit.
Plasma was collected in house from adult mixed-gender Wistar rats, prepared using 2% EDTA as per standard practice. Peptides were added to rat plasma samples at 37° C. (in a water bath) with final concentrations of 100 uM (1:9 peptide in water:plasma) and a 50 μL sample was immediately taken and precipitated in 150 μL cold acetonitrile (9:1 ACN:water). This sample became the baseline, or t=0 min sample. Plasma with peptide was immediately returned to the water bath and subsequent 50 μL samples were taken at 5, 10, 15, 30, 60 and 120 min. At each time point, the 50 μL of plasma collected was immediately added to cold ACN. Each collected plasma sample in ACN was directly vortexed for 30 seconds and then centrifuged at room temperature (13K rpm, 5 min). 150 μL of the supernatant was taken and directly placed in glass HPLC vials for LCMS analysis.

[5] = molecular target: KOP (Homo sapiens, UniProt P41145); assay: Statistics for each peptide | IC50 (nM)
Experimental: Table printed on a drawing sheet, FIG 12
Head of the field: Statistics for each peptide | IC50 (nM)
First copying reader's note: The table stands under a forest plot whose axis is labelled 'Mean IC50 ± 95% CI (nM)'; according to the description the IC50 values were measured in HEK-KOP cells.

Sequence of DOP (P41143 whole entry): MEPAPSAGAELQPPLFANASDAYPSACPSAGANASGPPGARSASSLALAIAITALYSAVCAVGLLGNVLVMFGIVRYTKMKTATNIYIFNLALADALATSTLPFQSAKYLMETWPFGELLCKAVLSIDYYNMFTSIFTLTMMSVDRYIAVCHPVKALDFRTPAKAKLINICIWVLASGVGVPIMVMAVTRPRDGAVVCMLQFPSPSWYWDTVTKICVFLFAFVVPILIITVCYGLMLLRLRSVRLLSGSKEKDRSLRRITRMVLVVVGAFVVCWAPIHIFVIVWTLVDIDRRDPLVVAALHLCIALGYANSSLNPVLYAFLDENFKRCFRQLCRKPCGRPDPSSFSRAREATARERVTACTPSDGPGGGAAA
Sequence of KOP (P41145 whole entry, looked up): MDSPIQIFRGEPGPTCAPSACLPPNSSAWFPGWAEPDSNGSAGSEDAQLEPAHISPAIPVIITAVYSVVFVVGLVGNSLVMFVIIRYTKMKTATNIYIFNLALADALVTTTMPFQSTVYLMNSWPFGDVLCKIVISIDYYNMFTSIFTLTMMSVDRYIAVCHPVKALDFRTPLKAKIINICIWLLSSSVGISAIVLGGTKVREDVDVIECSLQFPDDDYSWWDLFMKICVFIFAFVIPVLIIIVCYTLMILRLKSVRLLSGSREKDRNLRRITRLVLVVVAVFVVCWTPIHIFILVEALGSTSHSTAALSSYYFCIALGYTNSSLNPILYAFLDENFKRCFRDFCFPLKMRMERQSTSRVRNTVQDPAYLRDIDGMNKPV

| Structure (SMILES) | half-life at 0.125 mg/mL ([1]; 37° C., LC-MS (Table 8), read-out: Serum half-life (converted)) [h] | half-life at 0.125 mg/mL ([1]; more sensitive LC-MS (Table 8a), read-out: Incubation in serum: half life) [h] | metabolised at 6 h, 0.125 mg/mL ([1]; up to 6 h, more sensitive LC-MS, read-out: Degradation in serum) [%] | EC50 [2] [nM] | Degradation in cAMP assay buffer [3] | half-life at 100 uM [4] [min] | remaining at 1 h, 0.125 mg/mL ([1]; after 1 hr, read-out: Peptide still present in serum) [%] | remaining at 2 h, 0.125 mg/mL ([1]; after 2 hours, read-out: Peptide still present in serum) [%] | half-life at 0.125 mg/mL ([1]; more sensitive LC-MS (Table 8a), read-out: Incubation in serum: half-life) [h] | IC50 [5] [nM] |
| --- | --- | --- | --- | --- | --- | --- | --- | --- | --- | --- |
| CC1(C)CNC(=O)C[C@H](C(=O)N[C@@H](CCCNC(=N)N)C(=O)N[C@@H](CCCNC(=N)N)C(N)=O)NC(=O)[C@H](Cc2ccccc2)NC(=O)CNC(=O)[C@@H](NC(=O)[C@@H](N)Cc2ccc(O)cc2)CSS1 [DP-7-11, c(Tyr-SSa-Gly-Phe-D(Asp)-Arg-Arg)] | 6 | > 6 | ~10 | > 10000 | – | – | – | – | – | – |
| CC1(C)CNC(=O)C[C@@H](NC(=O)[C@@H](N)Cc2ccc(O)cc2)C(=O)NCC(=O)N[C@@H](Cc2ccccc2)C(=O)N[C@H](C(=O)N[C@@H](CCCNC(=N)N)C(=O)N[C@@H](CCCNC(=N)N)C(N)=O)CSS1 [DP-7-12, c(Tyr-D(Asp)-Gly-Phe-SSa-Arg-Arg)] (H-Y[dD]GFCRR-NH2; linker 2-5 via NHCH2CMe2S) | – | – | – | – | no degradation | 206 | ~67 | ~20 | ~0.75 | 4.49 ± 1.59 |

From US20220089646A1 (THE UNIVERSITY OF QUEENSLAND, priority 2019, published 2022)
